# Values quoted from earlier work, collected in patent publication US20090142391A1, “Conjugated RNAi Therapeutics” (priority 2007, published 2009).
# Settings: in the blood
smiles,measurement,value
C=CC[C@@H]1/C=C(\C)C[C@H](C)C[C@H](OC)[C@H]2O[C@@](O)(C(=O)C(=O)N3CCCC[C@H]3C(=O)O[C@H](/C(C)=C/[C@@H]3CC[C@@H](O)[C@H](OC)C3)[C@H](C)[C@@H](O)CC1=O)[C@H](C)C[C@@H]2OC [FK506],distribution into protected cellular compartments,72-98%
